Molecules are shown by their SMILES.

The target in one assay is T1, ICAM-1 binding to immobilized Mac-1 (Homo sapiens, UniProt P05107+P11215).
T1 construct: made in house; host or cells: transfected 293 cells (Mac-1)
T1 sequence (P05107 23-769, other chains not shown): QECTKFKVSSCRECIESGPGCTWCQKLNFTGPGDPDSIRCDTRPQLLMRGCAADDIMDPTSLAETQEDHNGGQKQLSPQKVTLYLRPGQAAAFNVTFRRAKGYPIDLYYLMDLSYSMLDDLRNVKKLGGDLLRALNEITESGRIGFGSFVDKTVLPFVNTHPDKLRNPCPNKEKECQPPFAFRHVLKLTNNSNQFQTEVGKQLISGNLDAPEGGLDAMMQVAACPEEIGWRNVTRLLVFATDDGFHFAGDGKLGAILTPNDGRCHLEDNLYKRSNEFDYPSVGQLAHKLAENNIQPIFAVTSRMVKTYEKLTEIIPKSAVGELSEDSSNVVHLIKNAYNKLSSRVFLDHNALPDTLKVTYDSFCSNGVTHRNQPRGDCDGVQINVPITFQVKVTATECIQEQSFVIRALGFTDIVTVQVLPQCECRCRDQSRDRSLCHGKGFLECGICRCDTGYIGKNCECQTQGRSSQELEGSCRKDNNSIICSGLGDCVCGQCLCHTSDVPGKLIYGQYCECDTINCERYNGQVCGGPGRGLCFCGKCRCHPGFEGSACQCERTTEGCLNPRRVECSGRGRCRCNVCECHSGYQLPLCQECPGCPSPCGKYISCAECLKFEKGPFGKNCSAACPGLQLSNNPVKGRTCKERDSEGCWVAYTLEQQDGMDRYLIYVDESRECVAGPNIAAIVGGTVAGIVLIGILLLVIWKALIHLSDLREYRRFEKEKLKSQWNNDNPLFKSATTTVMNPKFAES
Nature of the assay: Mac-1/ICAM-1 screening assay (solid-phase ELISA). Conditions: Mac-1/ICAM-1 Protein-Protein Assay IC50. The method, then:
(b) Mac-1/ICAM-1 screening test: Mac-1/ICAM-1 antagonist activity, defined as the ability to compete with ICAM-1 binding to immobilized Mac-1, was quantitated by a solid-phase ELISA.
(§1) Membrane-bound Mac-1 derived from transfected 293 cells was coated onto 96-well microtiter plates (50 μL/well, 3 μg/mL Mac-1 in 20 mM Hepes, pH 7.2/0.14 M NaCl/1 mM MnCl2) overnight at 4° C. The plates were blocked with 100 μL/well of 0.5% BSA in 20 mM Hepes, pH 7.2/0.14 M NaCl/1 mM MnCl2 at 37° C. for 1 h and washed 3 times (120 μL each) with Binding Buffer (20 mM Hepes, pH 7.2/0.14 M NaCl/1 mM MnCl2/0.05% Tween 20). Test compounds were dissolved in 100% DMSO and diluted 1:50 in Binding Buffer plus 10% DMSO. A series of 1:4 dilutions were performed for each compound (concentration range, 0.12 nM-20 μM). Each dilution (25 μL/well) was added to the plates, followed by 25 μL/well of 5 dICAM-Ig (40 μg/mL in Binding Buffer). The plates were shaken vigorously for 1 min (room temperature), followed by gentle agitation for 2 h (37° C.), and washed with Binding Buffer (3 times, 120 μL each). HRP-conjugated goat anti-human IgG(Fc-specific) antibody (0.125 μg/mL in Binding Buffer plus 0.05% BSA) was added to each well (50 μL/well), followed by incubation for 1 h at 37° C. The plates were then washed 3 times with Binding Buffer (120 μL each). TMB solution (100 μL/well) was added to each well for color development for 10 min. The reaction was stopped with 1 M H3PO4 (100 μL/well) and the plates were read at 450 nm. The inhibitory activities of test compounds were determined by the IC50s.
as §1, with “Mac-1/ICAM-1 antagonist activity, defined as the ability to compete with ICAM-1 binding to immobilized Mac-1, was quantitated by a solid-phase ELISA. Membrane-bound” for “Membrane-bound”, “5dICAM-Ig” for “5 dICAM-Ig”, “nm.” for “nm. The inhibitory activities of test compounds were determined by the IC50s.”
Consider `O=C(Cc1ccc([N+](=O)[O-])cc1[N+](=O)[O-])NC[C@H](NC(=O)c1ccc(C(=O)NCc2cccc(O)c2)cc1Cl)C(=O)O` [Example 83], for which the IC50 came to 58 nM. `O=C(NCc1cccc(O)c1)c1ccc(C(=O)N[C@@H](CNC(=O)c2cc([N+](=O)[O-])cc([N+](=O)[O-])c2)C(=O)O)c(Cl)c1` [Example 129] displayed an IC50 of 37 nM.

The same assay, now with this note: read-out: Mac-1/ICAM-1 Protein-Protein Assay IC50.
Regarding `O=C(CC1CCCCC1)NC[C@H](NC(=O)c1ccc(C(=O)NCc2cccc(O)c2)cc1Cl)C(=O)O` [Example 78], the IC50 was determined as 94 nM. On to `O=C(Cc1ccccc1)NC[C@H](NC(=O)c1ccc(C(=O)NCc2cccc(O)c2)cc1Cl)C(=O)O` [Example 79], for which the IC50 was 74 nM. `COc1ccc(CC(=O)NC[C@H](NC(=O)c2ccc(C(=O)NCc3cccc(O)c3)cc2Cl)C(=O)O)cc1` [Example 80]: the IC50 was determined as 134 nM. As to `O=C(Cc1ccc([N+](=O)[O-])cc1)NC[C@H](NC(=O)c1ccc(C(=O)NCc2cccc(O)c2)cc1Cl)C(=O)O` [Example 81], the IC50 turned out to be 58 nM. On to `O=C(Cc1cccc(C(F)(F)F)c1)NC[C@H](NC(=O)c1ccc(C(=O)NCc2cccc(O)c2)cc1Cl)C(=O)O` [Example 82], for which the IC50 turned out to be 62 nM. In the case of `O=C(Cc1cccs1)NC[C@H](NC(=O)c1ccc(C(=O)NCc2cccc(O)c2)cc1Cl)C(=O)O` [Example 84], the IC50 was 60 nM. Still for that read-out and setting: as for `O=C(NCc1cccc(O)c1)c1ccc(C(=O)N[C@@H](CNC(=O)C(c2ccccc2)c2ccccc2)C(=O)O)c(Cl)c1` [Example 86], the figure is 179 nM; as for `O=C(Cc1ccc2ccccc2c1)NC[C@H](NC(=O)c1ccc(C(=O)NCc2cccc(O)c2)cc1Cl)C(=O)O` [Example 87], 87 nM; as for `O=C(CC1c2ccccc2-c2ccccc21)NC[C@H](NC(=O)c1ccc(C(=O)NCc2cccc(O)c2)cc1Cl)C(=O)O` [Example 88], 273 nM. Still for that read-out and setting: as for `O=C(C[n+]1csc2ccccc21)NC[C@H](NC(=O)c1ccc(C(=O)NCc2cccc(O)c2)cc1Cl)C(=O)O` [Example 89], the figure is 464 nM. On the same count and under the same terms, the result for `O=C(CSc1ccncc1)NC[C@H](NC(=O)c1ccc(C(=O)NCc2cccc(O)c2)cc1Cl)C(=O)O` [Example 90] reads 29 nM; that for `O=C(CSc1ncccn1)NC[C@H](NC(=O)c1ccc(C(=O)NCc2cccc(O)c2)cc1Cl)C(=O)O` [Example 91], 174 nM; that for `CC(C)(C)C(=O)NC[C@H](NC(=O)c1ccc(C(=O)NCc2cccc(O)c2)cc1Cl)C(=O)O` [Example 92], 48 nM. In the case of `O=C(NCc1cccc(O)c1)c1ccc(C(=O)N[C@@H](CNC(=O)C23CC4CC(CC(C4)C2)C3)C(=O)O)c(Cl)c1` [Example 93], the IC50 was determined as 57 nM. `O=C(CCc1ccccc1)NC[C@H](NC(=O)c1ccc(C(=O)NCc2cccc(O)c2)cc1Cl)C(=O)O` [Example 94]: the IC50 came to 42 nM. Same read-out and setting: as for `O=C(NCc1cccc(O)c1)c1ccc(C(=O)N[C@@H](CNC(=O)c2cnccn2)C(=O)O)c(Cl)c1` [Example 170], the figure is 116 nM. On the same count and under the same terms, as for `O=C(NCc1cccc(O)c1)c1ccc(C(=O)N[C@@H](CNC(=O)c2cc3ccccc3s2)C(=O)O)c(Cl)c1` [Example 175], the figure is 23 nM; as for `O=C(NCc1cccc(O)c1)c1ccc(C(=O)N[C@@H](CNC(=O)c2ccc3ncsc3c2)C(=O)O)c(Cl)c1` [Example 177], 19 nM; as for `O=C(NCc1cccc(O)c1)c1ccc(C(=O)N[C@@H](CNC(=O)c2cccc3ccccc23)C(=O)O)c(Cl)c1` [Example 178], 19 nM. On the same count and under the same terms, as for `O=C(NCc1cccc(O)c1)c1ccc(C(=O)N[C@@H](CNC(=O)c2ccc3ccccc3c2)C(=O)O)c(Cl)c1` [Example 179], the figure is 31 nM. Take `O=C(NCc1cccc(O)c1)c1ccc(C(=O)N[C@@H](CNC(=O)c2cnc3ccccc3c2)C(=O)O)c(Cl)c1` [Example 183]: the IC50 came out at 222 nM. Regarding `O=C(NCc1cccc(O)c1)c1ccc(C(=O)N[C@@H](CNC(=O)c2cc(=O)c3ccccc3o2)C(=O)O)c(Cl)c1` [Example 187], the IC50 worked out at 56 nM. The same measure, in the same setting: the result for `O=C(NCc1cccc(O)c1)c1ccc(C(=O)N[C@@H](CNC(=O)c2c3c(nc4ccccc24)CCCC3)C(=O)O)c(Cl)c1` [Example 190] reads 417 nM; that for `O=C(NCc1cccc(O)c1)c1ccc(C(=O)N[C@@H](CNC(=O)c2ccc3c(c2)S(=O)(=O)c2ccccc2C3=O)C(=O)O)c(Cl)c1` [Example 192], 40 nM.

As for `CC(=O)NC[C@H](NC(=O)c1ccc(C(=O)NCc2cccc(O)c2)cc1Cl)C(=O)O` [Example 193], the IC50 came out at 49 nM. In the case of `CC(C)C(=O)NC[C@H](NC(=O)c1ccc(C(=O)NCc2cccc(O)c2)cc1Cl)C(=O)O` [Example 194], the IC50 came out at 36 nM. On the same count and under the same terms, as for `CC(C)CC(=O)NC[C@H](NC(=O)c1ccc(C(=O)NCc2cccc(O)c2)cc1Cl)C(=O)O` [Example 195], the figure is 47 nM.

Turning to `O=C(NCc1cccc(O)c1)c1ccc(C(=O)N[C@@H](CNC(=O)[C@@H]2CCCN2)C(=O)O)c(Cl)c1` [Example 196], the IC50 was 16 nM. Regarding `CSCC[C@H](N)C(=O)NC[C@H](NC(=O)c1ccc(C(=O)NCc2cccc(O)c2)cc1Cl)C(=O)O` [Example 197], the IC50 came to 38 nM.

For the molecule `NCCCC[C@H](N)C(=O)NC[C@H](NC(=O)c1ccc(C(=O)NCc2cccc(O)c2)cc1Cl)C(=O)O` [Example 198], the IC50 was 48 nM.

With `N[C@@H](Cc1ccccc1)C(=O)NC[C@H](NC(=O)c1ccc(C(=O)NCc2cccc(O)c2)cc1Cl)C(=O)O` [Example 199], the IC50 came out at 36 nM. The same measure, in the same setting: as for `NC(=O)C[C@H](N)C(=O)NC[C@H](NC(=O)c1ccc(C(=O)NCc2cccc(O)c2)cc1Cl)C(=O)O` [Example 200], the figure is 33 nM; as for `N[C@@H](Cc1c[nH]c2ccccc12)C(=O)NC[C@H](NC(=O)c1ccc(C(=O)NCc2cccc(O)c2)cc1Cl)C(=O)O` [Example 201], 49 nM. Still for that read-out and setting: the result for `N[C@@H](CCC(=O)NC[C@H](NC(=O)c1ccc(C(=O)NCc2cccc(O)c2)cc1Cl)C(=O)O)C(=O)O` [Example 202] reads 37 nM; that for `O=C(NC[C@H](NC(=O)c1c(Cl)cccc1Cl)C(=O)O)c1ccccc1` [Example 219], 319 nM.

Turning to `O=C(NC[C@H](NC(=O)c1c(Cl)cccc1Cl)C(=O)O)c1ccc(Br)s1` [Example 223], the IC50 was found to be 82 nM.

As for `O=C(NC[C@H](NC(=O)c1c(F)cccc1Cl)C(=O)O)c1ccc(Br)s1` [Example 224], the IC50 was 377 nM. For the molecule `O=C(NC[C@H](NC(=O)c1c(F)cccc1Cl)C(=O)O)c1ccc2[nH]nnc2c1` [Example 226], the IC50 turned out to be 273 nM.

For the molecule `O=C(NCc1cccc(O)c1)c1ccc(C(=O)N[C@@H](CNC(=O)c2cc(F)cc(F)c2)C(=O)O)c(Cl)c1` [Example 252, N-[2-chloro-4-[[[(3-hydroxyphenyl)methyl]amino]carbonyl]benzoyl]-3-(3,5-difluorobenzoyl)amino-L-alanine], the IC50 is 6.8 nM.

`O=C(NCc1cccc(O)c1)c1ccc(C(=O)N[C@@H](CNC(=O)c2csnn2)C(=O)O)c(Cl)c1` [Example 254]: the IC50 amounted to 11 nM. On to `Cc1nnsc1C(=O)NC[C@H](NC(=O)c1ccc(C(=O)NCc2cccc(O)c2)cc1Cl)C(=O)O` [Example 255], for which the IC50 was determined as 41 nM. Consider `O=C(NCc1cccc(O)c1)c1ccc(C(=O)N[C@@H](CNC(=O)c2ccno2)C(=O)O)c(Cl)c1` [Example 256], for which the IC50 was found to be 14 nM. On the same count and under the same terms, as for `COc1cscc1C(=O)NC[C@H](NC(=O)c1ccc(C(=O)NCc2cccc(O)c2)cc1Cl)C(=O)O` [Example 257], the figure is 23 nM.

For the origin of these results see patent US20040006236A1, “Diaminopropionic acid derivatives” (priority 1999, published 2004).
